This test relates to MT1-MMP promoter luciferase reporter cells, luminescence. Description: inhibitors of MT1-MMP promoter transcription, cell-based, luciferase reporter, luminescence (AID 618;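 further: actives suppress MT1-MMP promoter-driven transcription so potencies describe inhibitors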). (In general: A reporter such as luciferase makes a cellular process visible.)

As usually defined, the EC50 is the midpoint of the concentration-response curve. For the compound `Cc1cc(C(=O)CSc2nc3ccccc3[nH]2)c(C)n1CC1CCCO1` (configuration not stated), the 50% effective concentration (EC50) was 3.86 µM.

On to `Cc1cc(C)c(OCC(=O)Nc2cccc(O)c2)cc1C`, for which the EC50 was 26.6 µM.

For the origin of these results see PubChem BioAssay AID618 (Sanford-Burnham Center for Chemical Genomics, 2007).
